Source: US20070212355A1 (priority 2005, published 2007)
Values belong to the compound of their own block, whether it stands above or below them.

Experiments:
[1] = SEC-SLS self-association of peptides in PBS (pH 7.5); assay type: physicochemical
Experimental: The self-association poses a challenge to the development and manufacturing of a homogeneous therapeutic.
Solution molecular weight of the peptides was measured by SEC-SLS. Briefly, peptide solutions in PBS (pH 7.5) at 0.4 to 2.0 mg/mL were fractionated over a Superdex peptide column (Amersham Pharmacia). The eluted peaks were monitored by static light scattering at 690 nm and solution molecular weight was determined at UV 280 nm using the Astra software package (Wyatt Inc.).

[2] = humans; cited from earlier work
mutated human GLP-2R = target: T1, mutated human GLP-2R (Homo sapiens, UniProt O95838, E512D/G511A/L513V); experiment: cAMP expression assay in HEK 293E clonal cell line expressing mutated human GLP-2R; assay type: cell-based; conditions: assay set-up, vs control peptide
T1 construct: expressed in transfected cells; host or cells: HEK 293E clonal cell line
T1 sequence (O95838 1-553 G511A/E512D/L513V): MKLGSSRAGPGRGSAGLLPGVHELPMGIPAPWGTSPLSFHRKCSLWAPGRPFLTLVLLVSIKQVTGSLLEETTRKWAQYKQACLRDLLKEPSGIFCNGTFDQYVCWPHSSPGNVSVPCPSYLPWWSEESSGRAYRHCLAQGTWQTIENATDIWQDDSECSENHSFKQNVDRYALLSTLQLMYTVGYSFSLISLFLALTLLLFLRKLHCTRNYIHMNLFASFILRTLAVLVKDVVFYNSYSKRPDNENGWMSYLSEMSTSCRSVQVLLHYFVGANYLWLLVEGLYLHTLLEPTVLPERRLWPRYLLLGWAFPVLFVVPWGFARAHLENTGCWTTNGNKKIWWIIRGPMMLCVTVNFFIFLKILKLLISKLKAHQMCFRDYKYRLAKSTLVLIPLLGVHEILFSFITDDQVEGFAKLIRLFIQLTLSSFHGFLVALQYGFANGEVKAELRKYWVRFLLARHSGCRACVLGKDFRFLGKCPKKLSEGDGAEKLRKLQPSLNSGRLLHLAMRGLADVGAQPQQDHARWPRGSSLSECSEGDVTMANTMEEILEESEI
Description: To achieve this goal, a clonal cell line expressing a mutated human GLP-2R was generated by transfecting HEK 293E cells. The mutated human GLP-2R differs from the wild-type human GLP-2R (SEQ ID NO: 35) at three amino acid positions within the C-terminal intracellular region (SEQ ID NO: 36).
The cAMP expression was quantitated using the cAMP Direct Screen System (Cat. No. CSD 200, Applied Biosystems, Bedford, Mass.).
This assay was based on the cAMP Direct Screen System from Applied Biosystems utilizing a cell line expressing mutated huGLP-2R in HEK 293E cells. Peptide at concentrations ranging from 0.01 nM to 1.0 uM in PBS with 0.5% BSA was added to ˜50,000 cells suspended in 96-well plates. After a 30-minute incubation at 37° C., Lysis Buffer followed by luminescence reagents (Applied Biosystems) was added according to the manufacturers' procedures (Applied Biosystems Luminescence protocol: cAMP-Screen Direct System). Luminescence was quantitated using a TopCount liquid scintillation analyzer (PerkinElmer), and data was processed using Softmax software (Molecular Devices Corporation).

[3] = Helical propensity analysis using TFE (CD at 222 nm); assay type: physicochemical; conditions: 0.2 mg/mL in PBS (pH 7.5), MRE at 222 nm
Experimental: In addition, trifluoroethanol (TFE) is known to induce helix formation in peptides (Soennichsen et al., Biochemistry 31: 8791 (1992)). Accordingly, helical propensity analysis using TFE was performed. Briefly, tested peptides were diluted to 0.2 mg/mL in PBS (pH 7.5) containing 0, 1, 5, 15, 33 or 50% TFE. CD spectra were collected and CD plots were generated after data averaging, buffer subtraction and curve smoothing. Helical propensity values were obtained from mean residue ellipticity (MRE) at 222 nm versus % TFE plots. The concentration of TFE that effected a 50% transformation of the CD spectrum at 222 nm was used as a measure of helical propensity.

[4] = CD spectra secondary structure of peptides; assay type: physicochemical; conditions: 0.2 mg/mL in PBS, 25° C.
Experimental: The secondary structures of tested peptides were determined using 0.2 mg/mL peptide solutions in PBS. Briefly, CD spectra were collected in triplicate at 1 nm intervals at 25° C. in 0.1 cm path length cell. Secondary structures were determined by fitting of the CD spectra using CD spectra software (CD Spectra Deconvolution software 2.1). All tested peptides contained peaks corresponding to the presence of alpha helices.

[5] = Pharmacokinetics in CD1 mice, TRF assay of active mimetibody; assay type: in vivo
Description: Blood was collected at different time points into citrate buffer containing protease inhibitors to minimize the possibility of ex vivo degradation and plasma was separated by centrifugation.
(§1) A time resolved fluorescence (TRF) assay was used to measure active mimetibody. Active mimetibody reflects the intact N-terminus of the peptide still attached to the Fc region of the mimetibody.

CD1 mice = experiment: Mucosal wet weight of small intestine after 10 daily subcutaneous injections; assay type: in vivo
Description: Afterwards, the mice were euthanized and the small intestines were removed, flushed with saline, and processed as described below.
(§2) Specifically, 4 cm sections were harvested: (1) immediately distal to the pylorus (duodenum), (2) starting 2 cm distal of the ligament of Treitz (jejunum), and (3) immediately proximal to the cecum (ileum). The remaining small intestine from ˜6 cm distal of the ligament of Treitz to 4 cm proximal to the cecum was used to prepare mucosal scrapings. From the proximal and distal ends of the remnant, an equal distance was removed until a 15 cm section remained, the remnant was cut longitudinally, rinsed, and the mucosal layer was removed using the short end of a glass microscope slide. The wet weight of the intact intestinal segments and mucosa was measured.

mice [6] = experiment: Upper gastrointestinal transit, FITC-dextran method, normal mice; assay type: in vivo; conditions: for upper gastrointestinal transit (FITC-dextran): single 4 mg/kg dose 4 days prior, FIG. 4, 4 mg/kg
Experimental: On the day of study, upper gastrointestinal transit was measured using the FITC-dextran method. This method provides both, a measure of gastrointestinal transit and a readout of the pattern of distribution of the test meal along the gastrointestinal tract. Mice were fed a test meal of […] of FITC-dextran solution (5 mg/ml of 70,000 molecular weight dextran conjugated to fluorescein-isothiocyanate in 0.5% methylcellulose/deionized water) administered intragastrically by an 18 gauge curved feeding tube. Following oral administration of the FITC-dextran test meal, mice were returned to their home cages. It was shown that a 30 min test period was the optimum duration for detecting accelerated transit, while a 45 min test period was optimum for detecting delayed transit. Following the appropriate test period, mice were sacrificed by carbon dioxide exposure. The entire gastrointestinal tract from the lower esophageal sphincter to the terminal colon was removed. The bowel segments were opened along the mesenteric border. The tissue and luminal contents of the stomach, 10 equal segments of small intestine, the cecum, and 3 equal segments of colon were placed in individual Eppendorf tubes containing 1 ml of PBS. The tissue was vigorously mixed on a table-top vortex, and solid materials were pelleted by centrifugation. Aliquots of the cleared supernatant were read in duplicate on a 96-well fluorescence plate reader to quantify the magnitude of the fluorescent signal in each segment of bowel. These values were used to calculate the Geometric Center (GC), which is defined as the weighted average distribution of the fluorescent signal along the gastrointestinal tract: GC=Σ(% of total fluorescent signal per segment×segment number)/100. Higher values represent faster rates of transit on scale of 1 to 15. […] The mimetibody-induced shift in the distribution pattern of FITC-dextran is shown in the upper panel. […] The GC is calculated in the lower panel for statistical comparison.

mice [7] = experiment: Pharmacodynamics: dosing-regimen study, intestinal weights, 11 days; assay type: in vivo
Description: as §2
The duration of the study was 11 days and tissue was processed as described in Example 4.

[8] = Pharmacokinetics in cynomolgus monkeys, TRF assay; assay type: in vivo; conditions: 1 mg/kg intravenously
Description: as §1

[9] = SEC-SLS analysis of mimetibodies (monomer/dimer); assay type: physicochemical; conditions: purified from HEK 293E/HEK 293 expression

self-association state ([1]; 0.4 mg/mL): monomer
SEC-SLS elution / self-association state ([1]; 1 mg/ml): overlapping dimer and monomer peaks
proportion of monomers ([1]; 2 mg/mL): about 20%
proportion of reversibly self-associated dimer ([1]; 2 mg/mL): about 80%
stimulation of cAMP expression (mutated human GLP-2R): stimulated cAMP expression
TFE required for helical transformation (helical propensity) [3]: ~16 % TFE
Helix (percentage of helical structure) [4]: 19.6%
Random coil (percentage) [4]: 37.9%
Compound: CC[C@H](C)[C@H](NC(=O)[C@H](Cc1ccccc1)NC(=O)[C@H](CC(=O)O)NC(=O)[C@H](CCCNC(=N)N)NC(=O)[C@H](C)NC(=O)[C@H](C)NC(=O)[C@H](CC(C)C)NC(=O)[C@H](CC(N)=O)NC(=O)[C@H](CC(=O)O)NC(=O)[C@H](CC(C)C)NC(=O)[C@@H](NC(=O)[C@@H](NC(=O)[C@H](CC(N)=O)NC(=O)[C@H](CCSC)NC(=O)[C@H](CCC(=O)O)NC(=O)[C@H](CC(=O)O)NC(=O)[C@H](CO)NC(=O)[C@H](Cc1ccccc1)NC(=O)[C@H](CO)NC(=O)CNC(=O)[C@H](CC(=O)O)NC(=O)[C@H](C)NC(=O)[C@@H](N)Cc1c[nH]cn1)[C@@H](C)O)[C@@H](C)CC)C(=O)N[C@@H](CC(N)=O)C(=O)N[C@@H](Cc1c[nH]c2ccccc12)C(=O)N[C@@H](CC(C)C)C(=O)N[C@H](C(=O)N[C@@H](CCC(N)=O)C(=O)N[C@H](C(=O)N[C@@H](CCCCN)C(=O)N[C@H](C(=O)N[C@H](C(=O)N[C@@H](CC(=O)O)C(=O)O)[C@@H](C)O)[C@@H](C)CC)[C@@H](C)O)[C@@H](C)CC [SEQ ID NO: 1]
reported half-life [2]: 7.2 ± 2 min

Compound: SEQ ID NO: 5: A2G GLP-2 IgG4 mimetibody; core HGDGSFSDEMNTILDNLAARDFINWLIQTKITDGSGGGSGTLVTVSSESKYGPPCPPCP
calculated half-life ([5]; CD1 mice, 3 mg/kg intravenously or subcutaneously, TRF): 26.5 h
half-life relative to GLP-2 peptide ([5]; mimetibody in mice vs reported GLP-2 peptide in humans): more than 200 fold
increase in mucosal wet weight vs control mimetibody (CD1 mice; 0.8 mg/kg (0.26 nmole) daily s.c. 10 days, p<0.0001): statistically significant
increase in mucosal wet weight vs control mimetibody (CD1 mice; 8 mg/kg (2.6 nmole) daily s.c. 10 days, p<0.0004): statistically significant
mucosal wet weight (15 cm segment between jejunum and ileum), dose response (CD1 mice; daily s.c. 10 days, female CD1 mice, FIG. 2): dose dependent increase
effective in vivo dose lower than that of A2G GLP-2 peptide (molar basis) (CD1 mice; mucosal weight model): 50 fold
upper gastrointestinal transit (FITC-dextran) (mice [6]; listed as A2G GLP-2 mimetibody): significant acceleration of intestinal transit
upper gastrointestinal transit (FITC-dextran) (mice [6]; listed as GLP-2 mimetibody): acceleration of upper gastrointestinal transit
Geometric Center (GC) of FITC-dextran (mice [6]; single injection 4 days prior, 30 minute test, scale 1 to 15, normal mice GC=6): 7.5
mucosal weight difference to control mimetibody (mice [7]; 4 mg/kg every day or every other day, 11 day study, compared with once per week): more pronounced
mucosal weight compared to control mimetibody (mice [7]; 4 mg/kg once per week, 11 day study): significantly increased mucosal weight
duodenum and jejunum section wet weight over control mimetibody (mice [7]; 4 mg/kg, all regimens except for the single dose experiment): significant increase in weight
calculated half-life [8]: 115 h
SEC-SLS association state of mimetibody [9]: dimer
